We go through 8 molecules from US20250368648A1, “MULTI-CYCLIC IRAK AND FLT3 INHIBITING COMPOUNDS AND USES THEREOF” (CHILDREN'S HOSPITAL MEDICAL CENTER, priority 2022, published 2025).

pIC50: −log10 of the molar value. Like-named read-outs stand apart in the source and are kept apart here. Bounds are passed on as bounds.

One assay concerns the target T1, IRAK4 (Homo sapiens, UniProt Q9NWZ3).
T1 sequence (Q9NWZ3 1-460): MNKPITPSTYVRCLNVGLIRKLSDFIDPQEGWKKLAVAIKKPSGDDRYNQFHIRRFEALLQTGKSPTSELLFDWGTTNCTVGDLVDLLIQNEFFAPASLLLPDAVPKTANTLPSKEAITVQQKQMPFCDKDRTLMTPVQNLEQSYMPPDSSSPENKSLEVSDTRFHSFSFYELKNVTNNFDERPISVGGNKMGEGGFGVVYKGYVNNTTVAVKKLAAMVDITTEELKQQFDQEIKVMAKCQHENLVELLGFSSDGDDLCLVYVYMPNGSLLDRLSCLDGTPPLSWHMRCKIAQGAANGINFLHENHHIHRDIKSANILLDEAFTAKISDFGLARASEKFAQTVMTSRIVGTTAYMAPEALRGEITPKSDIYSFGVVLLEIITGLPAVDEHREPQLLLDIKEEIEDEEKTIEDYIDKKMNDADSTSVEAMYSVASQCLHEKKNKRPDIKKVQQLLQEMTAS
Put plainly: RBC HotSpot Kinase Assay, IRAK4. Type of assay: biochemical. The note with it: HotSpot functional assay, isolated kinase enzyme, 33P-ATP. Also on record: purchased RBC (Reaction Biology) HotSpot assay. In a few lines: (§1)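 Isolated kinases, possibly truncated or lacking regulatory receptor regions, were preincubated with compound for 20 min at room temp in 20 mM Hepes pH 7.5, 10 mM MgCl2, 1 mM EGTA, 2 mM DTT, 1% DMSO. Reactions were started with ^33P-ATP and run 2 h at room temperature; activity was read by P81 filter binding.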

In a further assay the target is T2, FLT3 (Homo sapiens, UniProt P36888).
T2 sequence (P36888 27-993): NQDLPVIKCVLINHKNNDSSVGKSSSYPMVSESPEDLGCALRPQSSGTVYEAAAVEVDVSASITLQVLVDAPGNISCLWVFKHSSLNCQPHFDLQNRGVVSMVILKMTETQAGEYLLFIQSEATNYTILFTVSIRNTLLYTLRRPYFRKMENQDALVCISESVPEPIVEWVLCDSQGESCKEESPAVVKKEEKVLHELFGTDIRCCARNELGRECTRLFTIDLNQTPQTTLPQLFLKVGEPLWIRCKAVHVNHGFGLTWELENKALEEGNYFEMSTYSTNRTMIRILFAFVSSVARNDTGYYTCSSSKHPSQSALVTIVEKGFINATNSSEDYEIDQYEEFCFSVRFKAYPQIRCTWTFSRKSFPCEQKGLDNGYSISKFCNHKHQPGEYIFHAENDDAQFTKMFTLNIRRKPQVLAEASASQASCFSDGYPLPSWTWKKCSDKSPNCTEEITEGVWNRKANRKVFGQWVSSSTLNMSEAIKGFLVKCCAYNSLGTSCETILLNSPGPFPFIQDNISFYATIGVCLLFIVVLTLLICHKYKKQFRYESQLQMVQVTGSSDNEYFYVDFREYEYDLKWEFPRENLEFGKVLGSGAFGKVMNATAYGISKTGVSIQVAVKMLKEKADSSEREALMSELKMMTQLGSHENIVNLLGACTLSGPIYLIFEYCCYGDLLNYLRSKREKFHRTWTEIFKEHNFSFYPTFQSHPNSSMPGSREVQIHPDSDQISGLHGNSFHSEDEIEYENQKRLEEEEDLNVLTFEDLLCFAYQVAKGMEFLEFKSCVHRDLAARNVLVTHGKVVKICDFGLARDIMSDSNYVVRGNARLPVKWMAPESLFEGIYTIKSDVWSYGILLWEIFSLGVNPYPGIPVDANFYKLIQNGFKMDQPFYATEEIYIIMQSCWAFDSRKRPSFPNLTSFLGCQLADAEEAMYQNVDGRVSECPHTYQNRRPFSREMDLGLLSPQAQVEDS
Kind of assay: RBC HotSpot Kinase Assay, FLT3. Type of assay: biochemical. The note with it: HotSpot functional assay, isolated kinase enzyme, 33P-ATP. Further details: purchased RBC (Reaction Biology) HotSpot assay. The method, boiled down:
as §1

A further assay deals with MOLM14 D835Y cells. Put plainly: MOLM14 D835Y cell viability assay (Cell Titer Glo). The note with it: Homo sapiens, MOLM-14, 48 h. Type of assay: cell-based. On the procedure: The cell line has activated FLT3 receptors which carry additional resistance mutations in the kinase domain (D835Y).
MOLM14 D835Y cells were grown in RPMI-1640 media supplemented with 20% fetal bovine serum (FBS). […] After cell addition, 23 nL of test compound were transferred into individual wells (22 doses tested for each test compound, with a 1:2 dilution series starting at 10 μM) via a 1536 pin-tool. Bortezomib (final concentration 2.3 μM) was used as a positive control for cell cytotoxicity.
For orientation: Cellular ATP, detected with luciferase, serves as a proxy for viable cell number.

In another assay the test system is NF-κB. Kind of assay: NF-kB assay in THP-1-Blue NF-κB cells (SEAP reporter). It is filed as cell-based. On the procedure: THP-1-Blue NF-κB cells (InvivoGen) carrying a stable integrated NF-κB-inducible secreted embryonic alkaline phosphatase (SEAP) reporter construct were plated at a concentration of 1×10^5 cells per well. The cells were stimulated with Pam3CSK4 (1 ng/mL) or hIL1B (Ing/mL). After 10-20 minutes, the cells were then treated with vehicle (DMSO) or serial dilutions of the test compounds (10 doses tested for each test compound, with a 1:10 dilution series starting at 1 μM or 3 μM) with a final volume of 200 μL for 24 hours at 37° C. After 24 hours, the cells were centrifuged and 20 IL supernatant was incubated with 180 μL QUANTI-Blue reagent at 37° C. for 30-60 minutes. The levels of NF-κB-induced was measured in a microplate reader at 620 nm.

A further assay addresses T3, IRAK1 (Homo sapiens, UniProt P51617).
T3 construct: purchased RBC (Reaction Biology) HotSpot assay
Kind of assay: RBC HotSpot Kinase Assay, IRAK1. It is filed as biochemical. The note with it: HotSpot functional assay, isolated kinase enzyme, 33P-ATP. The method, boiled down: as §1

Assay [1] deals with MOLM14-FLT3-ITD (D835Y) AML cells. Put plainly: Caspase-Glo 3/7 apoptosis assay, time course. It is filed as cell-based. The note with it: 4.12 nM added to dose level 7 of Compound 106 with dose level 7 of venetoclax.
The mark [2] stands for this setting: THP-1-Blue NF-κB cells stimulated with Pam3CSK4, 24 hours, read-out: NF-κB Pam3SCK4 IC50.
The mark [3] stands for this setting: THP-1-Blue NF-κB cells stimulated with hIL1B, 24 hours, read-out: NF-κB IL1B IC50.

T3 sequence (P51617 whole entry): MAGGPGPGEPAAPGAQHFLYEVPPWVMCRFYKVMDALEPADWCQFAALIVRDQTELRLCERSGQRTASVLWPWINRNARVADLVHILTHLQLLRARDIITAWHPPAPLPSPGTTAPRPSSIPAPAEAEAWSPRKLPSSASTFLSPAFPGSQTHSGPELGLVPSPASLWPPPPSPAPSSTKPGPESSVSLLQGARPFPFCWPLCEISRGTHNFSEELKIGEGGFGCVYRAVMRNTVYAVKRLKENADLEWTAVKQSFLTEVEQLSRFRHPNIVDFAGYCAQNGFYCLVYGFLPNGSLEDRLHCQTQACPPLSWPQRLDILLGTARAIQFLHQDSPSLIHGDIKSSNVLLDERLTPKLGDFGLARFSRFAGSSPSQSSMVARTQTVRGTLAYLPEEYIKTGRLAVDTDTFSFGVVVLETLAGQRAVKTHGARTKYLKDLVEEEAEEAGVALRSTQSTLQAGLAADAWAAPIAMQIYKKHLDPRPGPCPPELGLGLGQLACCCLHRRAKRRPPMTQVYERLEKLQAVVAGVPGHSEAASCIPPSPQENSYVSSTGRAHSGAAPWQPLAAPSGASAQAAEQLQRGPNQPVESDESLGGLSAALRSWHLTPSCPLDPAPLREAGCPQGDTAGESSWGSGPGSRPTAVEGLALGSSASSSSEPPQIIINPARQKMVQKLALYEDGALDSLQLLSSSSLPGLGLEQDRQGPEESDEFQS

The term pIC50 denotes −log10 of the IC50, conventionally taken in molar units. On to `COc1cc2ncc(-c3nc(N[C@H]4CNCC[C@@H]4F)ccc3F)n2nc1C1CC1` [Compound 47a, 6-(6-cyclopropyl-7-methoxyimidazo[1,2-b]pyridazin-3-yl)-5-fluoro-N-((3S,4S)-4-fluoropiperidin-3-yl)pyridin-2-amine], for which the pIC50 is more than 9.30 against IRAK4; more than 9.30 against FLT3; 8.40 in the assay on MOLM14 D835Y cells; 7.35 in the assay with NF-κB (setting [2]); 7.02 in the assay with NF-κB (setting [3]); 8.22 at IRAK1.
In the case of `Nc1ncn([C@@H]2O[C@H](CO)[C@@H](O)[C@H]2O)c(=O)n1` [Compound 5-azacitdine, 5-azacitdine, reference compound], the “benefit of a third agent added to Compound 106 with venetoclax (apoptosis)” value in assay [1] is “little to no additional benefit”.
`COc1cc2ncc(-c3nc(N[C@H]4CNCC[C@@H]4F)c(F)cc3F)n2nc1C1CCO1` (stereo partly drawn) [Compound 74a, 3,5-difluoro-N-((3S,4S)-4-fluoropiperidin-3-yl)-6-(7-methoxy-6-(oxetan-2-yl)imidazo[1,2-b]pyridazin-3-yl)pyridin-2-amine]: the pIC50 is 8.52 on IRAK4; more than 9.30 on FLT3; 6.60 in the assay with NF-κB (setting [2]); 6.46 in the assay with NF-κB (setting [3]); 7.23 against IRAK1.
In the same order, the values of `COc1cc2ncc(-c3nc(N[C@H]4CNC[C@@H]4F)c(F)cc3F)n2nc1C1COC1` [Compound 71a, 3,5-difluoro-N-((3S,4S)-4-fluoropyrrolidin-3-yl)-6-(7-methoxy-6-(oxetan-3-yl)imidazo[1,2-b]pyridazin-3-yl)pyridin-2-amine] are 9.00, more than 9.30, 7.10, 7.01 and 7.30.
For `Oc1cc2ncc(-c3nc(N[C@@H]4CCCNC4)c(F)cc3F)n2nc1C1CC1` [Compound 75a, (R)-6-cyclopropyl-3-(3,5-difluoro-6-(piperidin-3-ylamino)pyridin-2-yl)imidazo[1,2-b]pyridazin-7-ol], in that order: 7.47, 9.10, 5.76, 5.64 and 6.33.
Take `COc1cc2ncc(-c3ccc(F)c(N[C@H]4CNC[C@@H]4F)n3)n2nc1C1CC1` [Compound 46a, 6-(6-cyclopropyl-7-methoxyimidazo[1,2-b]pyridazin-3-yl)-3-fluoro-N-((3S,4S)-4-fluoropyrrolidin-3-yl)pyridin-2-amine]: the pIC50 against IRAK4 is more than 9.30; at FLT3, more than 9.30; in the assay with MOLM14 D835Y cells, 6.94; with NF-κB (setting [2]) it was 7.23; in the assay with NF-κB (setting [3]), 7.14; at IRAK1 it was 7.92.
On to `COc1cc2ncc(-c3ccc(C#N)c(N[C@@H]4CCCNC4)n3)n2nc1C1CC1` [Compound 28a, (R)-6-(6-cyclopropyl-7-methoxyimidazo[1,2-b]pyridazin-3-yl)-2-(piperidin-3-ylamino)nicotinonitrile], for which the pIC50 against IRAK4 is 7.89; against FLT3, more than 9.30; in the assay with NF-κB (setting [2]), 6.69; with NF-κB (setting [3]), 6.32; against IRAK1, 6.08.
For `COc1cc2ncc(-c3nc(N[C@H]4CNC[C@@H]4F)ccc3F)n2nc1C1CC1` [Compound 45a, 6-(6-cyclopropyl-7-methoxyimidazo[1,2-b]pyridazin-3-yl)-5-fluoro-N-((3S,4S)-4-fluoropyrrolidin-3-yl)pyridin-2-amine], the negative-log IC50 (pIC50) on IRAK4 was more than 9.30; at FLT3, more than 9.30; in the assay with MOLM14 D835Y cells, 7.70; with NF-κB (setting [2]), 7.36; in the assay with NF-κB (setting [3]), 7.35; against IRAK1, 7.43.
